Measurements published in patent US8470828B2, “Anellated pyridine compounds” (Hoffmann-La Roche Inc., priority 2010, dated 2013).

What was measured:
human D2 receptor = biological target: T1, human D2 receptor (Homo sapiens, UniProt P14416); assay: Radioligand binding to cloned human D2 receptor expressed in HEK-293 EBNA cells ([3H]-spiperone); conditions: HEK293 EBNA cell membranes, approximately 0.7 nM [3H]-spiperone, 1 h at RT
T1 construct: expressed in transfected cells; host or cells: HEK293 EBNA cells, transient transfection; membrane preparation

human D3 receptor = human D3 receptor (Homo sapiens, UniProt P35462); assay: Radioligand binding to cloned human D3 receptor expressed in HEK-293 EBNA cells ([3H]-spiperone)
human 5-HT2A receptor = human 5-HT2A receptor (Homo sapiens, UniProt P28223); assay: Radioligand binding to cloned human 5-HT2A receptor expressed in HEK-293 EBNA cells ([3H]-ketanserin)
human 5-HT2A receptor, sequence (P28223 whole entry): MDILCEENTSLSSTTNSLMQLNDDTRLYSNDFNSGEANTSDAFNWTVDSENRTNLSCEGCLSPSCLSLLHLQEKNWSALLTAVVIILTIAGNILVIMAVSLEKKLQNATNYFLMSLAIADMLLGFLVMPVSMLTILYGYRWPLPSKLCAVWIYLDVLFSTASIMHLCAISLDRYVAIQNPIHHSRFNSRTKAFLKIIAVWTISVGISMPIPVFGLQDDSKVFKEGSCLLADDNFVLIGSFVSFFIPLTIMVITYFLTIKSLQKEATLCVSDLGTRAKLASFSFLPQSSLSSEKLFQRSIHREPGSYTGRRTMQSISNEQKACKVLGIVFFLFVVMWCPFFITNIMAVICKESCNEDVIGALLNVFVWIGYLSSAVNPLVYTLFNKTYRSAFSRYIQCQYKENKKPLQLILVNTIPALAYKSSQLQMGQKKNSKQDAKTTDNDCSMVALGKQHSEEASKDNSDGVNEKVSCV
Method: HEK293 EBNA cells were transiently transfected with expression plasmids encoding for the human D2 or D3 or for the human 5-HT2A receptor, respectively. The cells were harvested 48 h post-transfection, washed three times with cold PBS and stored at −80° C. prior to use. The pellet was suspended in cold 50 mM Tris-HCl buffer comprising 10 mM EDTA (pH 7.4) and was homogenized with a Polytron (Kinematica A G, Basel, Switzerland) for 20-30 sec at 12.000 rpm. After centrifugation at 48.000×g for 30 min at 4° C., the pellet was resuspended in cold 10 mM Tris-HCl buffer comprising 0.1 mM EDTA (pH 7.4), homogenized, and centrifuged as above. This pellet was further resuspended in a smaller volume of ice cold 10 mM Tris-HCl buffer comprising 0.1 mM EDTA (pH 7.4) and homogenized with a Polytron for 20-30 sec at 12.000 rpm. The protein content of this homogenate was determined with the Bio-Rad (Bradford) Protein Assay (Biorad Laboratories GmbH, München, Germany) according to the instructions of the manufacturer using gamma globulin as the standard. This homogenate was stored at −80° C. in aliquots and thawed immediately prior to use.
Aliquots of membrane preparations were thawed at RT, resupended in assay buffer (D2, D3: 50 mM Tris-HCl, 120 mM NaCl, 5 mM MgCl2, 1 mM EDTA, 5 mM KCl, 1.5 mM CaCl2, pH=7.4; 5-HT2A: 50 mM Tris-HCl, 10 mM MgCl2, 1 mM EGTA, pH=7.4), homogenized with a Polytron for 20-30 sec at 12.000 rpm and adjusted to a final concentration of approximately 7.5 μg protein/well (D2, D3) and 15 μg protein/well (5-HT2A), respectively.
The binding affinity (Ki) of the compounds was determined using radioligand binding. Membranes were incubated in a total volume of 200 μl with a fixed concentration of radioligand (final concentration approximately 0.7 nM [^3H]-spiperone for D2, 0.5 nM [^3H]-spiperone for D3, and 1.1 nM [^3H]-ketanserin for 5-HT2A) and ten concentrations of test compound in ranging between 10 μM-0.1 nM for 1 h at RT. At the end of the incubation, the reaction mixtures were filtered on to unifilter 96-well white microplates with bonded GF/C filters (Packard BioScience, Zürich, Switzerland; preincubated for 1 h in 0.1% polyethylenimine (PEI) in assay buffer) with a Filtermate 196 harvester (Packard BioScience) and washed 3 times with cold assay buffer. The nonspecific binding was determined with equally composed reaction mixtures in the presence of 10 μM unlabelled spiperone. Per well 45 μl of Microscint 40 (Perkin Elmer, Schwerzenbach, Switzerland) was added, plates for sealed, shaken for 20 min and counted for 3 min on a Topcount Microplate Scintillation Counter (Can berra Packard S A, Zürich, Switzerland) with quenching correction.
The CPM value for each duplicate of a concentration of competing compound was averaged (y1), then the % specific binding was calculated according to the equation (((y1−non-specific)/(total binding−non-specific))×100). Graphs were plotted with the % specific binding using XLfit, a curve fitting program that iteratively plots the data using Levenberg-Marquardt algorithm. The single site competition analysis equation used was y=A+((B−A)/(1+((x/C)D))), where y is the % specific binding, A is the minimum y, B is the maximum y, C is the IC50, x is the log 10 of the concentration of the competing compound and D is the slope of the curve (the Hill Coefficient). […] The affinity constant (Ki) was calculated using the Cheng-Prusoff equation Ki=(IC50/1+([L]/Kd), where [L] is the concentration of radioligand and Kd is the dissociation constant of the radioligand at the receptor as determined by the saturation isotherm.

T1 sequence (P14416 whole entry): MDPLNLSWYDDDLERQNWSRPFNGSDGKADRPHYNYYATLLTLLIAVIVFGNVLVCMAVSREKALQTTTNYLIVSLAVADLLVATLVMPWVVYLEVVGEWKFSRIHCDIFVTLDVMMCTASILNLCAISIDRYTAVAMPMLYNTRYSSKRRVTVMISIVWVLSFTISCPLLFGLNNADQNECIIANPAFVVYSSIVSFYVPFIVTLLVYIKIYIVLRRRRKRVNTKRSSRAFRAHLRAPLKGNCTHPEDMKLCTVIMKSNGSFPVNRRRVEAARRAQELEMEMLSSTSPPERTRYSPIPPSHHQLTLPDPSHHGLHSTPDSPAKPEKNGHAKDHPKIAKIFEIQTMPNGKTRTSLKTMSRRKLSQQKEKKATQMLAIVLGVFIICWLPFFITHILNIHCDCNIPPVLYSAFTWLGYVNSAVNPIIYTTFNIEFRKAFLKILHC
human D3 receptor, sequence (P35462 whole entry): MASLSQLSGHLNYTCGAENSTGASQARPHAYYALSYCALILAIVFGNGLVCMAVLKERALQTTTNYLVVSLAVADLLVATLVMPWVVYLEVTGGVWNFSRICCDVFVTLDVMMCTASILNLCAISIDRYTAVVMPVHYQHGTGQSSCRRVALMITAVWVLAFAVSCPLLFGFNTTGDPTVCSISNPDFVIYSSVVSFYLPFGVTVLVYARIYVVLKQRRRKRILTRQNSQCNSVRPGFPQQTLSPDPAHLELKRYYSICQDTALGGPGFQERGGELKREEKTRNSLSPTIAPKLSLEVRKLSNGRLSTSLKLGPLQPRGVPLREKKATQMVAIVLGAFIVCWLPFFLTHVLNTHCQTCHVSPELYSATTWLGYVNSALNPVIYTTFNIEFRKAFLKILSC

SMILES | Ki (human D2 receptor) [nM] | melting point [°C] | Ki (human D3 receptor) [nM] | Ki (human 5-HT2A receptor) [nM]
O=C(N[C@H]1CC[C@H](CCN2CCN(c3nccc4c3OCC4)CC2)CC1)c1ccc(N2CCCCC2)cc1 [Example 57, trans-N-(4-{2-[4-(2,3-Dihydro-furo[2,3-c]pyridin-7-yl)-piperazin-1-yl]-ethyl}-cyclohexyl)-4-piperidin-1-yl-benzamide] | 1760 | 182.5 | 42.7 | 50.6
N#CCC(=O)N[C@H]1CC[C@H](CCN2CCN(c3nccc4c3OCC4)CC2)CC1 [Example 31, trans-2-Cyano-N-(4-{2-[4-(2,3-dihydro-furo[2,3-c]pyridin-7-yl)-piperazin-1-yl]-ethyl}-cyclohexyl)-acetamide] | 137 | 215.5 | 2.19 | 29.7
O=C(CCC(F)(F)F)N[C@H]1CC[C@H](CCN2CCN(c3nccc4c3OCC4)CC2)CC1 [Example 84, trans-N-(4-{2-[4-(2,3-Dihydro-furo[2,3-c]pyridin-7-yl)-piperazin-1-yl]-ethyl}-cyclohexyl)-4,4,4-trifluoro-butyramide] | 1410 | 204.5 | 14.2 | 112
O=C(N[C@H]1CC[C@H](CCN2CCN(c3nccc4c3OCC4)CC2)CC1)c1ccc(N2CCOCC2)nc1 [Example 73, trans-N-(4-{2-[4-(2,3-Dihydro-furo[2,3-c]pyridin-7-yl)-piperazin-1-yl]-ethyl}-cyclohexyl)-6-morpholin-4-yl-nicotinamide] | 479 | 231 | 15 | 22.4
CC(C)(C)c1ccc(C(=O)N[C@H]2CC[C@H](CCN3CCN(c4nccc5c4OCC5)CC3)CC2)cc1 [Example 56, trans-4-tert-Butyl-N-(4-{2-[4-(2,3-dihydro-furo[2,3-c]pyridin-7-yl)-piperazin-1-yl]-ethyl}-cyclohexyl)-benzamide] | 1930 | 183 | 79.5 | 67.4
CC(C)(O)CC(=O)N[C@H]1CC[C@H](CCN2CCN(c3nccc4c3OCC4)CC2)CC1 [Example 46, trans-N-(4-{2-[4-(2,3-Dihydro-furo[2,3-c]pyridin-7-yl)-piperazin-1-yl]-ethyl}-cyclohexyl)-3-hydroxy-3-methyl-butyramide] | 904 | 139 | 14 | 49.6
O=C(C[C@@H](O)C(F)(F)F)N[C@H]1CC[C@H](CCN2CCN(c3nccc4c3OCC4)CC2)CC1 [Example 47, trans-(R)—N-(4-{2-[4-(2,3-Dihydro-furo[2,3-c]pyridin-7-yl)-piperazin-1-yl]-ethyl}-cyclohexyl)-4,4,4-trifluoro-3-hydroxy-butyramide] | 943 | 214.5 | 15 | 89
O=C(N[C@H]1CC[C@H](CCN2CCN(c3nccc4c3OCC4)CC2)CC1)c1ccc(N2CCOCC2)cc1 [Example 38, trans-N-(4-{2-[4-(2,3-Dihydro-furo[2,3-c]pyridin-7-yl)-piperazin-1-yl]-ethyl}-cyclohexyl)-4-morpholin-4-yl-benzamide] | 2280 | 241.5 | 15.5 | 16.6
O=C(CC1CCOCC1)N[C@H]1CC[C@H](CCN2CCN(c3nccc4c3OCC4)CC2)CC1 [Example 8, trans-N-(4-{2-[4-(2,3-Dihydro-furo[2,3-c]pyridin-7-yl)-piperazin-1-yl]-ethyl}-cyclohexyl)-2-(tetrahydro-pyran-4-yl)-acetamide] | 1480 | 222.5 | 7.49 | 48.9
O=C(N[C@H]1CC[C@H](CCN2CCN(c3nccc4c3OCC4)CC2)CC1)c1ccc(N2CCS(=O)(=O)CC2)cc1 [Example 74, trans-N-(4-{2-[4-(2,3-Dihydro-furo[2,3-c]pyridin-7-yl)-piperazin-1-yl]-ethyl}-cyclohexyl)-4-(1,1-dioxo-1λ6-thiomorpholin-4-yl)-benzamide] | 145 | 260.5 | 9.47 | 23.1
O=C(CCO)N[C@H]1CC[C@H](CCN2CCN(c3nccc4c3OCC4)CC2)CC1 [Example 49, trans-N-(4-{2-[4-(2,3-Dihydro-furo[2,3-c]pyridin-7-yl)-piperazin-1-yl]-ethyl}-cyclohexyl)-3-hydroxy-propionamide] | 723 | 257 | 10.4 | 82.3
CC[C@@H](O)CC(=O)N[C@H]1CC[C@H](CCN2CCN(c3nccc4c3OCC4)CC2)CC1 [Example 103, (R)-3-Hydroxy-pentanoic acid trans-(4-{2-[4-(2,3-dihydro-furo[2,3-c]pyridin-7-yl)-piperazin-1-yl]-ethyl}-cyclohexyl)-amide] | 874 | 146 | 20.1 | 113
O=C(N[C@H]1CC[C@H](CCN2CCN(c3nccc4ccoc34)CC2)CC1)C1CCOCC1 [Example 11, Tetrahydro-pyran-4-carboxylic acid trans-{4-[2-(4-furo[2,3-c]pyridin-7-yl-piperazin-1-yl)-ethyl]-cyclohexyl}-amide] | 511 | 211 | 22.6 | 7.29
O=C(N[C@H]1CC[C@H](CCN2CCN(c3nccc4c3OCC4)CC2)CC1)c1ccc(-c2ccccc2)cc1 [Example 70, Biphenyl-4-carboxylic acid trans-(4-{2-[4-(2,3-dihydro-furo[2,3-c]pyridin-7-yl)-piperazin-1-yl]-ethyl}-cyclohexyl)-amide] | 556 | 220.5 | 18.4 | 45.6
CCC(=O)N[C@H]1CC[C@H](CCN2CCN(c3nccc4ccoc34)CC2)CC1 [Example 14, trans-N-{4-[2-(4-Furo[2,3-c]pyridin-7-yl-piperazin-1-yl)-ethyl]-cyclohexyl}-propionamide] | 502 | 187.5 | 3.57 | 9.48
COC(CC(=O)N[C@H]1CC[C@H](CCN2CCN(c3nccc4c3OCC4)CC2)CC1)OC [Example 62, trans-N-(4-{2-[4-(2,3-Dihydro-furo[2,3-c]pyridin-7-yl)-piperazin-1-yl]-ethyl}-cyclohexyl)-3,3-dimethoxy-propionamide] | 1280 | 218 | 7.22 | 38.2

The remaining lines, values ahead:

Ki (human D2 receptor) [nM] | melting point [°C] | Ki (human D3 receptor) [nM] | Ki (human 5-HT2A receptor) [nM] | SMILES
648 | 196 | 3.94 | 43.3 | CCC(=O)N[C@H]1CC[C@H](CCN2CCN(c3nccc4c3OCC4)CC2)CC1 [Example 18, trans-N-(4-{2-[4-(2,3-Dihydro-furo[2,3-c]pyridin-7-yl)-piperazin-1-yl]-ethyl}-cyclohexyl)-propionamide]
425 | 246 | 7.76 | 31.3 | O=C(CO)N[C@H]1CC[C@H](CCN2CCN(c3nccc4c3OCC4)CC2)CC1 [Example 28, trans-N-(4-{2-[4-(2,3-Dihydro-furo[2,3-c]pyridin-7-yl)-piperazin-1-yl]-ethyl}-cyclohexyl)-2-hydroxy-acetamide]
481 | 220 | 13.9 | 70.8 | CS(=O)(=O)N[C@H]1CC[C@H](CCN2CCN(c3nccc4c3OCC4)CC2)CC1 [Example 26, trans-N-(4-{2-[4-(2,3-Dihydro-furo[2,3-c]pyridin-7-yl)-piperazin-1-yl]-ethyl}-cyclohexyl)-methanesulfonamide]
680 | 187 | 4.36 | 52.1 | CS(=O)(=O)CC(=O)N[C@H]1CC[C@H](CCN2CCN(c3nccc4c3OCC4)CC2)CC1 [Example 21, trans-N-(4-{2-[4-(2,3-Dihydro-furo[2,3-c]pyridin-7-yl)-piperazin-1-yl]-ethyl}-cyclohexyl)-2-methanesulfonyl-acetamide]
1280 | 126.5 | 12.8 | 32.9 | COCC(=O)N[C@H]1CC[C@H](CCN2CCN(c3nccc4c3OCC4)CC2)CC1 [Example 20, trans-N-(4-{2-[4-(2,3-Dihydro-furo[2,3-c]pyridin-7-yl)-piperazin-1-yl]-ethyl}-cyclohexyl)-2-methoxy-acetamide]
265 | 203.5 | 7.25 | 34.8 | CC(C)C(=O)N[C@H]1CC[C@H](CCN2CCN(c3nccc4c3OCC4)CC2)CC1 [Example 37, trans-N-(4-{2-[4-(2,3-Dihydro-furo[2,3-c]pyridin-7-yl)-piperazin-1-yl]-ethyl}-cyclohexyl)-isobutyramide]
1130 | 241 | 44.7 | 8.48 | CC(C)(O)C(=O)N[C@H]1CC[C@H](CCN2CCN(c3nccc4c3OCC4)CC2)CC1 [Example 59, trans-N-(4-{2-[4-(2,3-Dihydro-furo[2,3-c]pyridin-7-yl)-piperazin-1-yl]-ethyl}-cyclohexyl)-2-hydroxy-2-methyl-propionamide]
641 | 128 | 10.8 | 31.1 | CN(C)S(=O)(=O)N[C@H]1CC[C@H](CCN2CCN(c3nccc4c3OCC4)CC2)CC1 [Example 95, N′-(trans-4-{2-[4-(2,3-Dihydro-furo[2,3-c]pyridin-7-yl)-piperazin-1-yl]-ethyl}cyclohexyl)-N,N-dimethylsulfamide]
472 | 195 | 4 | 58.2 | CC(=O)N[C@H]1CC[C@H](CCN2CCN(c3nccc4c3OCC4)CC2)CC1 [Example 6, trans-N-(4-{2-[4-(2,3-Dihydro-furo[2,3-c]pyridin-7-yl)-piperazin-1-yl]-ethyl}-cyclohexyl)-acetamide]
